# Tests used:
# [1] = Evaporation behavior: thermobalance tests; assay type: physicochemical; details: products of Examples 1 and 2 based on 100%
# Description: (§1) Weight losses were determined after one week storage in a circulating-air dryer at 65° C. and tests with a thermobalance (onset of weight loss, and weight loss at 350° C.) were performed.
# (§2) The exact initial weight of the specimens (about 2 g) in glass Petri dishes (about 10 cm in diameter) is determined and the weight loss after treatment is determined by reweighing.
# [2] = Evaporation behavior: weight loss after one week storage in a circulating-air dryer at 65° C.; assay type: physicochemical; details: products of Examples 1 and 2 based on 100%
# Description: as §1, §2
# [3] = test system: Proteus vulgaris; experiment: Overlay test, zones of inhibition, Proteus vulgaris; assay type: cell-based; details: two days at 37° C.
# [4] = Water solubility in tap water (one week stirring, chloroform extraction, tin by atomic absorption spectroscopy); assay type: physicochemical; details: products of Examples 1 and 2 based on 100%, 10080 min
# Description: 1 g of the substance to be tested was mixed in a beaker with 1 liter of tap water by stirring for one week. After settling and decanting, the organotin compounds dissolved in the water were extracted with chloroform. The tin concentrations were determined by atomic absorption spectroscopy.
# [5] = Thermal stability, one hour treatment at 180° C. in open glass vessels; assay type: physicochemical; details: tributyltin content not determinable
# Description: After prior methylation, the content of tributyltin compounds after a one hour treatment at 180° C. in open glass vessels was determined by gas chromatography.
# [6] = test system: Bacillus mesentericus; experiment: Overlay test, zones of inhibition, Bacillus mesentericus; assay type: cell-based; details: two days at 37° C.
# [7] = test system: Bacillus subtilis; experiment: Overlay test, zones of inhibition, Bacillus subtilis; assay type: cell-based; details: two days at 37° C.
# [8] = 0.10 wt. % tin (impregnating solution: TBTO 0.25; TBTL, TBTN 0.5; Ex. 1 1.0; Ex. 2 1.1 wt. %)
# [9] = 0.16 wt. % tin (impregnating solution: TBTO 0.4; TBTL, TBTN 0.8; Ex. 1 1.65; Ex. 2 1.7 wt. %)
# [10] = 0.24 wt. % tin (impregnating solution: TBTO 0.6; TBTL, TBTN 1.2; Ex. 1 2.45; Ex. 2 2.6 wt. %)
# [11] = 0.40 wt. % tin (impregnating solution: TBTO 1.0; TBTL, TBTN 2.0; Ex. 1 4.1; Ex. 2 4.3 wt. %)
structure (smiles),measurement,setting,value
"CCC[CH2][Sn]([CH2]CCC)([CH2]CCC)[O][Sn]([CH2]CCC)([CH2]CCC)[CH2]CCC [TBTO, tri-n-butyltin oxide]",Thermobalance: Weight loss at 350° C.,[1]; 350° C.,80%
same,Thermobalance: Onset of weight loss,[1],75 °C
same,Weight loss after 7 days at 65° C.,[2],27.3%
same,"Zones of inhibition about the specimens, Proteus vulgaris",[3]; [8],3 cm^2
same,"Zones of inhibition about the specimens, Proteus vulgaris",[3]; [9],6 cm^2
same,"Zones of inhibition about the specimens, Proteus vulgaris",[3]; [10],9 cm^2
same,"Zones of inhibition about the specimens, Proteus vulgaris",[3]; [11],12 cm^2
same,Water solubility,[4],24.0 mg/liter of water
same,weight loss (1 hour at 180° C.),[5],98%
same,"Zones of inhibition about the specimens, Bacillus mesentericus",[6]; [8],5 cm^2
same,"Zones of inhibition about the specimens, Bacillus mesentericus",[6]; [9],8 cm^2
same,"Zones of inhibition about the specimens, Bacillus mesentericus",[6]; [10],14 cm^2
same,"Zones of inhibition about the specimens, Bacillus mesentericus",[6]; [11],20 cm^2
same,"Zones of inhibition about the specimens, Bacillus subtilis",[7]; [8],6 cm^2
same,"Zones of inhibition about the specimens, Bacillus subtilis",[7]; [9],13 cm^2
same,"Zones of inhibition about the specimens, Bacillus subtilis",[7]; [10],18 cm^2
same,"Zones of inhibition about the specimens, Bacillus subtilis",[7]; [11],20 cm^2
